Results: the NIST ThermoML archive (doi:10.1021/je900557u)
Numbers after ± are expanded uncertainties.

Legend:
[1] = xn = mol fraction of the nth substance listed; settings: 298.15 K, 101 kPa, Liquid, Vibrating tube method
[2] = refractive index (Na D-line) (dimensionless); settings: 298.15 K; 101.33 kPa; Liquid; refractometer
[3] = 298.15 K; 101.33 kPa; Liquid; Vibrating tube method

Which mass density ([1]; x2 = 0) does the source give for `Cc1ccccc1` [toluene] + CCCCCC here?
Its mass density is 862.17 ± 0.11 kg/m3.

Which refractive index [2] does the source give for `CCOS(=O)(=O)[O-].CC[n+]1cccc(C)c1` [1-ethyl-3-methylpyridinium ethylsulfate] here?
Its refractive index is 1.50591 ± 0.00024.

And the mass density [3]?
Its mass density is 1219.61 ± 0.42 kg/m3.

For `CCc1ccccc1` [ethylbenzene] + CCCCCC, which mass density ([1]; x2 = 0) is on record?
Its mass density is 862.51 ± 0.11 kg/m3.

What about the mass density ([1]; x2 = 0.0903) of the same compound?
The mass density was 843.13 ± 0.28 kg/m3.

What about the mass density ([1]; x2 = 0.1776) of the same compound?
The mass density was 824.35 ± 0.29 kg/m3.

And the mass density ([1]; x2 = 0.2675)?
The mass density was 805.21 ± 0.29 kg/m3.

What about the mass density ([1]; x2 = 0.3777) of the same compound?
The mass density was 781.93 ± 0.29 kg/m3.

What about the mass density ([1]; x2 = 0.4931) of the same compound?
The mass density was 757.81 ± 0.3 kg/m3.

And the mass density ([1]; x2 = 0.5929)?
Its mass density is 737.22 ± 0.31 kg/m3.

And the mass density ([1]; x2 = 0.6947)?
Its mass density is 716.43 ± 0.32 kg/m3.

And the mass density ([1]; x2 = 0.7984)?
The mass density was 695.45 ± 0.33 kg/m3.

And the mass density ([1]; x2 = 0.8942)?
The mass density was 676.28 ± 0.34 kg/m3.

With `Cc1ccccc1` [toluene] as the compound, how does the refractive index [2] read?
Its refractive index is 1.49399 ± 0.00014.

And the mass density [3]?
Its mass density is 862.17 ± 0.11 kg/m3.

With `CCCCCC` [hexane] + CCc1ccccc1 as the compound, how does the mass density ([1]; x1 = 1) read?
The mass density was 655.19 ± 0.25 kg/m3.

Which results are given for `CCCCCC` [hexane]?
refractive index [2]: 1.37234 ± 0.00024; mass density [3]: 655.19 ± 0.26 kg/m3

Which results are given for `CCCCCC` [hexane] + Cc1ccccc1?
mass density ([1]; x1 = 0.083): 841.73 ± 0.31 kg/m3; mass density ([1]; x1 = 0.1713): 820.75 ± 0.3 kg/m3; mass density ([1]; x1 = 0.298): 791.72 ± 0.3 kg/m3; mass density ([1]; x1 = 0.396): 770.3 ± 0.3 kg/m3; mass density ([1]; x1 = 0.5011): 748.44 ± 0.3 kg/m3; mass density ([1]; x1 = 0.5949): 729.53 ± 0.3 kg/m3; mass density ([1]; x1 = 0.6973): 709.61 ± 0.3 kg/m3; mass density ([1]; x1 = 0.7961): 691.1 ± 0.31 kg/m3; mass density ([1]; x1 = 0.8946): 673.45 ± 0.32 kg/m3; mass density ([1]; x1 = 1): 655.19 ± 0.25 kg/m3

Which refractive index [2] does the source give for `CCc1ccccc1` [ethylbenzene] here?
The refractive index was 1.49304 ± 0.00014.

What about the mass density [3] of the same compound?
Its mass density is 862.51 ± 0.11 kg/m3.
